Experimental data as given in PMC5701053, “Multicomponent mapping of boron chemotypes furnishes selective enzyme inhibitors” (Nature Communications, 2017).

How the values were obtained:
[1] = biological target: T1, α/β-hydrolase domain 3 (ABHD3) (Homo sapiens, UniProt Q8WU67); test: competitive gel-based ABPP (FP-rhodamine) in HEK […] lysate overexpressing human ABHD3; also in situ (IC50 […]) and ABPP-SILAC in SW620 cells; format: biochemical
T1 sequence (Q8WU67 1-409): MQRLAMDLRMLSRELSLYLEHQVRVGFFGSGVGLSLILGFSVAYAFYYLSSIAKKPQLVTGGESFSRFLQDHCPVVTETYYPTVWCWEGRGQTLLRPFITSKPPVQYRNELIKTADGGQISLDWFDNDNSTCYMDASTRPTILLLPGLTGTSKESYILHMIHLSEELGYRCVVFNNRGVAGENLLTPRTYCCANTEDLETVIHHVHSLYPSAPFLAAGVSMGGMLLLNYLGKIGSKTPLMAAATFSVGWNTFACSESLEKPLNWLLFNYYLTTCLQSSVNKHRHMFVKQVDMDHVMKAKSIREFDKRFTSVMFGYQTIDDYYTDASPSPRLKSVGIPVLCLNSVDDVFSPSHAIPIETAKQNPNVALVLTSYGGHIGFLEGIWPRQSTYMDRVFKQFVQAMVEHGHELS

[2] = biological target: T1, α/β-hydrolase domain 3 (ABHD3); test: competitive gel-based ABPP (mouse brain proteome; follow-up in HEK […] lysates expressing ABHD3); format: cell-based

SMILES	IC50 [1]	competitive gel-based ABPP (mouse brain proteome); follow-up in HEK 293T lysates [2]
C[N+]12CC(=O)O[B-]1(CC(C#N)N(Cc1ccc(F)cc1Cl)C(=O)c1ccccc1)OC(=O)C2 (racemic) [4j]	140 nM	
Cc1ccc(CN(C(=O)c2ccccc2)C(C#N)C[B-]23OC(=O)C[N+]2(C)CC(=O)O3)cc1 (stereo not drawn) [4g]		Compound 4j appears equipotent with compounds 4h and 4g against ABHD3, but is more selective against ABHD10.
C[N+]12CC(=O)O[B-]1(CC(C#N)N(Cc1ccccc1Cl)C(=O)c1ccccc1)OC(=O)C2 (stereo not drawn) [4h]		Compound 4j appears equipotent with compounds 4h and 4g against ABHD3, but is more selective against ABHD10.
